Source: ChEMBL document CHEMBL5244219, “Recent developments of quinolone-based derivatives and their activities against Escherichia coli” (Eur J Med Chem, 2018)
Values after ≈ are worked out from the molar mass of the structure shown.

What follows are molecules tested on Escherichia coli (assay: Antibacterial activity against Escherichia coli assessed as bacterial growth inhibition). Conditions: not given.
Type: functional

Compound	MIC [µg/mL]
CC1Cn2cc(C(=O)O)c(=O)c3cc(F)c(N4CCN(Cc5ccc(F)cc5F)CC4)c(c32)S1 (stereo unspecified)	0.12 (≈ 0.245 µM)
O=C(O)c1cn2c3c(c(Cl)c(F)cc3c1=O)SC(c1cccc(F)c1)C2 (stereo unspecified)	0.12 (≈ 0.305 µM)
CC1Cn2cc(C(=O)O)c(=O)c3cc(F)c(N4CCN(C)CC4)c(c32)S1 (stereo unspecified)	0.12 (≈ 0.318 µM)
CC1Cn2cc(C(=O)O)c(=O)c3cc(F)c(Cl)c(c32)S1 (stereo unspecified)	0.12 (≈ 0.382 µM)
CC1Cn2cc(C(=O)O)c(=O)c3cc(F)c(N4CCN(Cc5cccc(F)c5)CC4)c(c32)S1 (stereo unspecified)	0.12 (≈ 0.254 µM)
CC1Cn2cc(C(=O)O)c(=O)c3cc(F)c(N4CCN(S(=O)(=O)c5ccc(F)cc5)CC4)c(c32)S1 (stereo unspecified)	0.12 (≈ 0.23 µM)
CCNCC1CCN(c2c(F)cc3c(=O)c(C(=O)O)cn4c3c2SC(C)C4)C1 (stereo unspecified)	0.12 (≈ 0.296 µM)
CC1Cn2cc(C(=O)O)c(=O)c3cc(F)c(N4CCN(c5ccccn5)CC4)c(c32)S1 (stereo unspecified)	0.12 (≈ 0.272 µM)
O=C(O)c1cn2c3c(c(N4CCNCC4)c(F)cc3c1=O)SC(c1ccc(F)cc1)C2 (stereo unspecified)	0.12 (≈ 0.271 µM)
CC1Cn2cc(C(=O)O)c(=O)c3cc(F)c(N4CCN(c5ccc(F)cc5)CC4)c(c32)S1 (stereo unspecified)	0.12 (≈ 0.262 µM)
CC1Cn2cc(C(=O)O)c(=O)c3cc(F)c(N4CCCNCC4)c(c32)S1 (stereo unspecified)	0.12 (≈ 0.318 µM)
CC1Cn2cc(C(=O)O)c(=O)c3cc(F)c(N4CCNCC4)c(c32)S1 (stereo unspecified)	0.25 (≈ 0.688 µM)
CC1Cn2cc(C(=O)O)c(=O)c3cc(F)c(N4CCCC4)c(c32)S1 (stereo unspecified)	0.12 (≈ 0.344 µM)
CC1Cn2cc(C(=O)O)c(=O)c3cc(F)c(-n4ccnc4)c(c32)S1 (stereo unspecified)	0.12 (≈ 0.347 µM)
O=C(O)c1cn2c3c(c(Cl)c(F)cc3c1=O)SC(c1ccc(F)cc1)C2 (stereo unspecified)	0.12 (≈ 0.305 µM)
CN1CCN(c2c(F)cc3c(=O)c(C(=O)O)cn4c3c2SC(c2ccc(F)cc2)C4)CC1 (stereo unspecified)	0.12 (≈ 0.262 µM)
CC1Cn2cc(C(=O)O)c(=O)c3cc(F)c(N4CCN(Cc5ccccc5C(F)(F)F)CC4)c(c32)S1 (stereo unspecified)	0.12 (≈ 0.23 µM)

Compound	MIC [µg/mL]
O=C(O)c1cn2c3c(c(Cl)c(F)cc3c1=O)SC(c1ccccc1F)C2 (stereo unspecified)	0.12 (≈ 0.305 µM)
CC1Cn2cc(C(=O)O)c(=O)c3cc(F)c(N4CCN(C=O)CC4)c(c32)S1 (stereo unspecified)	0.12 (≈ 0.307 µM)
O=C(O)c1cn([C@@H]2C[C@@H]2F)c2cc(N3CCN(Cn4nc(-c5ccncc5)n(-c5ccccc5)c4=S)CC3)c(F)cc2c1=O	≤ 0.04
CC(=O)c1cc2cc([N+](=O)[O-])ccc2n(/N=C/c2cccc([N+](=O)[O-])c2)c1=O	1.6 (≈ 4.21 µM)
COc1cc(OC)cc(-c2nn(CN3CCN(c4cc5c(cc4F)c(=O)c(C(=O)O)cn5[C@@H]4C[C@@H]4F)CC3)c(=S)n2Cc2ccccc2)c1	≤ 0.04
O=C(O)c1cn([C@@H]2C[C@@H]2F)c2cc(N3CCN(Cn4nc(-c5ccc6ccccc6c5)n(Cc5ccccc5)c4=S)CC3)c(F)cc2c1=O	≤ 0.04
CC(=O)c1cc2ccccc2n(/N=C/c2cccc([N+](=O)[O-])c2)c1=O	1.6 (≈ 4.77 µM)
CC(=O)c1cc2ccccc2n(/N=C/c2ccc(C)cc2)c1=O	1.6 (≈ 5.26 µM)
CC(=O)c1cc2cc(Cl)ccc2n(/N=C/c2ccccc2[N+](=O)[O-])c1=O	1.6 (≈ 4.33 µM)
COc1cc(/C=N/n2c(=O)c(C(C)=O)cc3cc([N+](=O)[O-])ccc32)cc(OC)c1OC	1.6 (≈ 3.76 µM)
CC(=O)c1cc2ccccc2n(/N=C/c2ccccc2[N+](=O)[O-])c1=O	1.6 (≈ 4.77 µM)
CC(=O)c1cc2cc(Cl)ccc2n(/N=C/c2ccc(O)cc2)c1=O	1.6 (≈ 4.7 µM)
CC(=O)c1cc2ccccc2n(/N=C/c2ccccc2Cl)c1=O	1.6 (≈ 4.93 µM)
CC(=O)c1cc2ccccc2n(/N=C/c2ccc(O)cc2)c1=O	1.6 (≈ 5.22 µM)
CC(=O)c1cc2cc(Cl)ccc2n(/N=C/c2ccc(C)cc2)c1=O	1.6 (≈ 4.72 µM)
CC1Cn2cc(C(=O)O)c(=O)c3cc(F)c(N4C(C)CNCC4C)c(c32)S1 (stereo unspecified)	0.12 (≈ 0.307 µM)
COc1cc(/C=N/n2c(=O)c(C(C)=O)cc3cc(Cl)ccc32)cc(OC)c1OC	1.6 (≈ 3.86 µM)

What follows are molecules tested on Escherichia coli (assay: Antibacterial activity against Escherichia coli assessed as bacterial growth inhibition measured after 18 to 24 hrs by broth microdilution method). Conditions: time 18-24 hrs.
Type: functional

Compound	MIC [µg/mL]
O=C(O)c1cn(-c2ccc(O)cc2)c2cc(N3CC4CC3CN4)c(F)cc2c1=O (stereo unspecified)	< 0.05
N[C@@H]1CN(c2cc3c(cc2F)c(=O)c(C(=O)O)cn3-c2ccc(O)cc2)CC12CC2	< 0.05
O=C(O)c1cn(-c2ccc(O)cc2)c2cc(N3CCNCC3)c(F)cc2c1=O	< 0.05
O=C(O)c1cn(-c2ccc(O)cc2)c2nc(N3CC4CCCNC4C3)c(F)cc2c1=O (stereo unspecified)	< 0.05
C[C@H]1CN(c2nc3c(cc2F)c(=O)c(C(=O)O)cn3-c2ccc(O)cc2)C[C@H]1N	< 0.05
N[C@@H]1CCC[C@@H]2CN(c3cc4c(cc3F)c(=O)c(C(=O)O)cn4-c3ccc(O)cc3)C[C@@H]21	< 0.05
NCC1CCN(c2nc3c(cc2F)c(=O)c(C(=O)O)cn3-c2ccc(O)cc2)C1 (stereo unspecified)	< 0.05
C[C@H](N)[C@@H]1CCN(c2nc3c(cc2F)c(=O)c(C(=O)O)cn3-c2ccc(O)cc2)C1	< 0.05
NC1CCN(c2cc3c(cc2F)c(=O)c(C(=O)O)cn3-c2ccc(O)cc2)C1 (stereo unspecified)	< 0.05
COc1c(N2CC3CC2CN3)c(F)cc2c(=O)c(C(=O)O)cn(-c3ccc(O)cc3)c12 (stereo unspecified)	< 0.05
CN1CCN(c2nc3c(cc2F)c(=O)c(C(=O)O)cn3-c2ccc(O)cc2)CC1	< 0.05
C[C@@H](N)[C@H]1CCN(c2nc3c(cc2F)c(=O)c(C(=O)O)cn3-c2ccc(O)cc2)C1	< 0.05
N[C@H]1CN(c2nc3c(cc2F)c(=O)c(C(=O)O)cn3-c2ccc(O)cc2)CC12CC2	< 0.05
COc1c(N2CCC(CN)C2)c(F)cc2c(=O)c(C(=O)O)cn(-c3ccc(O)cc3)c12 (stereo unspecified)	< 0.05
COc1c(N2CCN(C)CC2)c(F)cc2c(=O)c(C(=O)O)cn(-c3ccc(O)cc3)c12	< 0.05
COc1c(N2CCC(N)C2)c(F)cc2c(=O)c(C(=O)O)cn(-c3ccc(O)cc3)c12 (stereo unspecified)	< 0.05
COc1c(N2CCNCC2)c(F)cc2c(=O)c(C(=O)O)cn(-c3ccc(O)cc3)c12	< 0.05
C[C@@H]1CN(c2cc3c(cc2F)c(=O)c(C(=O)O)cn3-c2ccc(O)cc2)C[C@H]1N	< 0.05
COc1c(N2CC3CCCNC3C2)c(F)cc2c(=O)c(C(=O)O)cn(-c3ccc(O)cc3)c12 (stereo unspecified)	< 0.05
C[C@@H]1CN(c2nc3c(cc2F)c(=O)c(C(=O)O)cn3-c2ccc(O)cc2)C[C@H](C)N1	< 0.05
COc1c(N2C[C@@H]3[C@@H](N)[C@@H]3C2)c(F)cc2c(=O)c(C(=O)O)cn(-c3ccc(O)cc3)c12	< 0.05
O=C(O)c1cn(-c2ccc(O)cc2)c2nc(N3CC4CC3CN4)c(F)cc2c1=O (stereo unspecified)	< 0.05
O=C(O)c1cn(-c2ccc(O)cc2)c2nc(N3CCNCC3)c(F)cc2c1=O	< 0.05
C[C@@H]1C[C@H](N)CN1c1cc2c(cc1F)c(=O)c(C(=O)O)cn2-c1ccc(O)cc1	< 0.05

Compound	MIC [µg/mL]
CN1CCC2CN(c3nc4c(cc3F)c(=O)c(C(=O)O)cn4-c3ccc(O)cc3)CC21 (stereo unspecified)	< 0.05
C[C@H]1CN(c2cc3c(cc2F)c(=O)c(C(=O)O)cn3-c2ccc(O)cc2)C[C@H]1N	< 0.05
N[C@@H]1[C@H]2CN(c3nc4c(cc3F)c(=O)c(C(=O)O)cn4-c3ccc(O)cc3)C[C@@H]12	< 0.05
N[C@@H]1CN(c2nc3c(cc2F)c(=O)c(C(=O)O)cn3-c2ccc(O)cc2)CC12CC2	< 0.05
C[C@@H]1CN(c2cc3c(cc2F)c(=O)c(C(=O)O)cn3-c2ccc(O)cc2)C[C@H](C)N1	< 0.05
N[C@@H]1[C@H]2CN(c3cc4c(cc3F)c(=O)c(C(=O)O)cn4-c3ccc(O)cc3)C[C@@H]12	< 0.05
N[C@@H]1CCC[C@@H]2CN(c3nc4c(cc3F)c(=O)c(C(=O)O)cn4-c3ccc(O)cc3)C[C@@H]21	< 0.05
C[C@H](N)[C@H]1CCN(c2cc3c(cc2F)c(=O)c(C(=O)O)cn3-c2ccc(O)cc2)C1	< 0.05
N[C@H]1CN(c2cc3c(cc2F)c(=O)c(C(=O)O)cn3-c2ccc(O)cc2)CC12CC2	< 0.05
C[C@@H]1CN(c2nc3c(cc2F)c(=O)c(C(=O)O)cn3-c2ccc(O)cc2)C[C@H]1N	< 0.05
C[C@H](N)[C@@H]1CCN(c2cc3c(cc2F)c(=O)c(C(=O)O)cn3-c2ccc(O)cc2)C1	< 0.05
COc1c(N2C[C@@H](N)C3(CC3)C2)c(F)cc2c(=O)c(C(=O)O)cn(-c3ccc(O)cc3)c12	< 0.05
C[C@@H](N)[C@H]1CCN(c2cc3c(cc2F)c(=O)c(C(=O)O)cn3-c2ccc(O)cc2)C1	< 0.05
COc1c(N2C[C@@H](C)N[C@@H](C)C2)c(F)cc2c(=O)c(C(=O)O)cn(-c3ccc(O)cc3)c12	< 0.05
C[C@H](N)[C@H]1CCN(c2nc3c(cc2F)c(=O)c(C(=O)O)cn3-c2ccc(O)cc2)C1	< 0.05
NCC1CCN(c2cc3c(cc2F)c(=O)c(C(=O)O)cn3-c2ccc(O)cc2)C1 (stereo unspecified)	< 0.05
O=C(O)c1cn(-c2ccc(O)cc2)c2cc(N3CC4CCCNC4C3)c(F)cc2c1=O (stereo unspecified)	< 0.05
CC1CNCCN1c1nc2c(cc1F)c(=O)c(C(=O)O)cn2-c1ccc(O)cc1 (stereo unspecified)	< 0.05
NC1CCN(c2nc3c(cc2F)c(=O)c(C(=O)O)cn3-c2ccc(O)cc2)C1 (stereo unspecified)	< 0.05
COc1c(N2C[C@@H](N)[C@@H](C)C2)c(F)cc2c(=O)c(C(=O)O)cn(-c3ccc(O)cc3)c12	< 0.05
COc1c(N2CC3CCN(C)C3C2)c(F)cc2c(=O)c(C(=O)O)cn(-c3ccc(O)cc3)c12 (stereo unspecified)	< 0.05
COc1c(N2C[C@@H](C)[C@H](N)C2)c(F)cc2c(=O)c(C(=O)O)cn(-c3ccc(O)cc3)c12	< 0.05
CN1CCC2CN(c3cc4c(cc3F)c(=O)c(C(=O)O)cn4-c3ccc(O)cc3)CC21 (stereo unspecified)	< 0.05
